Results on eight compounds are retold here after patent US6750244B2, “Compounds active at a novel site on receptor-operated calcium channels useful for treatment of neurological disorders and diseases” (NPS Pharmaceuticals, Inc., priority 1993, dated 2004).

In general, IC50 refers to the midpoint of a concentration-inhibition curve. What is called ED50 is the midpoint of the dose-response relation. Read a low ED50 as an effect at a small dose.

Where “and” joins values, the source holds several entries; their conditions need not be identical. Equal entries are not always repeated. Structures can show the parent of a compound that is named as a salt. Where two headings read alike, the source gives them in different places.

For data set [1], the target named is NMDA receptor-ionophore complex (site labeled by [3H]MK-801). The experiment in a line: Inhibition of [3H]MK-801 binding in rat cortical/hippocampal washed membrane preparations. The note with it: read-out: IC50 (μM) vs. [3H]MK-801, rat cortical/hippocampal washed membranes.
The test system of the next data set is NMDA receptor. Kind of data set: Inhibition of NMDA/glycine-induced increases in intracellular calcium in cultured rat cerebellar granule cells (RCGC). It is filed as cell-based. Conditions: NMDA/glycine-induced increases in intracellular calcium, cultured rat cerebellar granule cells; read-out: IC50 (μM) vs. NMDA.
The next data set deals with sound-induced seizures. Kind of data set: Sound-induced seizures in Frings mice (reflex epilepsy). It is filed as in vivo. The note with it: Mus musculus, ip; Frings mice.
A further data set can be described thus: in vivo. The note with it: Frings, mouse, in vivo, ip. How it is done:
In this assay, Frings and CF1 mice were injected with test compound and placed on a knurled rod which rotated at a speed of 6 rpm. The ability of the mice to maintain equilibrium for long periods of time was determined; those mice that were unable to maintain equilibrium on the rotorod for 1 min in each of 3 trials were considered impaired.

Data set [2] relates to central muscarinic cholinergic receptor. It is filed as binding, rat.
The next data set deals with T1, serotonin uptake site (Rattus norvegicus, UniProt P31652).
T1 construct: from tissue; host or cells: rat forebrain membranes (per the assay title)
Kind of data set: Serotonin uptake binding assay: [3H]citalopram binding to rat forebrain membranes.

The next data set concerns the target T2, dopamine uptake site (Cavia porcellus, UniProt H0WCX4).
T2 construct: from tissue; host or cells: guinea pig striatal membranes (per the assay title)
The experiment in a line: Dopamine uptake binding assay: [3H]WIN-35,428 binding to guinea pig striatal membranes.

The subject of a further data set is T3, L-type calcium channel.
T3 construct: L-type calcium channel: estimated IC50, KCl depolarization-induced increases in intracellular calcium; other: cultured
Kind of data set: Inhibition of KCl depolarization-induced increases in intracellular calcium in cultured rat cerebellar granule cells. It is filed as cell-based. Conditions: cultured rat cerebellar granule cells; read-out: L-type calcium channel: estimated IC50, KCl depolarization-induced increases in intracellular calcium. The text has this:
The ability of arylalkylamines to inhibit dihydropyridine-sensitive Ca^2+ channels was examined in cerebellar granule cells and a rat aortic smooth muscle cell line, A7r5 cells.

In data set [3] the target is T4, norepinephrine uptake site (Rattus norvegicus, UniProt Q63380).
T4 construct: from tissue; host or cells: rat cortical membranes (per the assay title)
Kind of data set: Norepinephrine uptake binding assay: [3H]desipramine binding to rat cortical membranes.

The next data set concerns induction of LTP. The arrangement: species or system rat. Conditions: slices superfused 30-60 min.

T4 sequence (Q63380 1-617): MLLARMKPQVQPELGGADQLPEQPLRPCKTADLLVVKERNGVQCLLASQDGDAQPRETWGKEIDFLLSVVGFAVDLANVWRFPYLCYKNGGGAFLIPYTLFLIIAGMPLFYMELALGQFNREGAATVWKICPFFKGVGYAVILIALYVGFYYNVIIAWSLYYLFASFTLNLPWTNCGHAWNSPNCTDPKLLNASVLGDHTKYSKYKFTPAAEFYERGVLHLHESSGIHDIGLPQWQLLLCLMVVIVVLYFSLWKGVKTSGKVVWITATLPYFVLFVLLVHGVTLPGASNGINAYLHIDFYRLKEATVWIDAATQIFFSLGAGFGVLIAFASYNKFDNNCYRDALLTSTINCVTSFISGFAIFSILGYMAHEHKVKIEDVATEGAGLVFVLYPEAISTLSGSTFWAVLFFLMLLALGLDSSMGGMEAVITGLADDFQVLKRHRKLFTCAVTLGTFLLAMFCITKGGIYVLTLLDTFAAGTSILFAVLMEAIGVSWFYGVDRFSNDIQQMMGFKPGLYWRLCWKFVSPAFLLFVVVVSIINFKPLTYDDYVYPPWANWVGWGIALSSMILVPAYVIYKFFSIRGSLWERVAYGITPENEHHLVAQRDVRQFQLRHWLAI
T2 sequence (H0WCX4 1-619): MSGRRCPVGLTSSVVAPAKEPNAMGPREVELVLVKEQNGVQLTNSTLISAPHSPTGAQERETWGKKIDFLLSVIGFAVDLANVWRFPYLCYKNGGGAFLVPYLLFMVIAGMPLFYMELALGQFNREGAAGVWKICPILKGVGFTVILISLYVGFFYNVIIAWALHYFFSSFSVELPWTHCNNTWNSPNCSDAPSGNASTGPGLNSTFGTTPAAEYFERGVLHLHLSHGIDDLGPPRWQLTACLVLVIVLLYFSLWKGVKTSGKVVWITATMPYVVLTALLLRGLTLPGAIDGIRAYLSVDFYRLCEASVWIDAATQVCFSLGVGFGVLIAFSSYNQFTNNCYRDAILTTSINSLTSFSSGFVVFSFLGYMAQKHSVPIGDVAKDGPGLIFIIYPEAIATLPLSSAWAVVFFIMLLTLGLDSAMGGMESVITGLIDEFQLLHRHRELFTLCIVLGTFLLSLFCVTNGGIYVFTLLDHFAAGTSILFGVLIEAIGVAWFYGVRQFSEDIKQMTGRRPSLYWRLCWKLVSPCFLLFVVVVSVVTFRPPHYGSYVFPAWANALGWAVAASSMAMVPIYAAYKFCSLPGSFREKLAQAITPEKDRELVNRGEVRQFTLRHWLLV
T1 sequence (P31652 whole entry): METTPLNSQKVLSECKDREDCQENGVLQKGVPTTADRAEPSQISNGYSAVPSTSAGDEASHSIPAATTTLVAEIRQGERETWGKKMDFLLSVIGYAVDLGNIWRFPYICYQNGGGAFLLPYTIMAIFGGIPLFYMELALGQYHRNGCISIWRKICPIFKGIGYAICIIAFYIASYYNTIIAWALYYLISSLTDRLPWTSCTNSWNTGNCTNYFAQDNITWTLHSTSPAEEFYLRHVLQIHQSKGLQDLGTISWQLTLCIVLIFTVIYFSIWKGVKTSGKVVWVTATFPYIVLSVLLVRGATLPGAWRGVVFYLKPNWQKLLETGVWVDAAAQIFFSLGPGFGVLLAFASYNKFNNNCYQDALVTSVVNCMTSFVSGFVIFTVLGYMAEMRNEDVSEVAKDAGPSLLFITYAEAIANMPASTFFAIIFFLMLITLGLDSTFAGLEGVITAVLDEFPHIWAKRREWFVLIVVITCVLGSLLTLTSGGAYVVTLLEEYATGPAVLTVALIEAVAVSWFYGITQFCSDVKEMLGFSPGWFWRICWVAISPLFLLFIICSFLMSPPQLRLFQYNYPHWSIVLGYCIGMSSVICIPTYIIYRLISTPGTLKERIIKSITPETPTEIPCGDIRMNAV

As for `Cc1ccc(F)cc1C(CCN)c1cccc(F)c1` (stereo not drawn) [Compound 57, 3-(3-fluorophenyl)-3-(3-fluoro-6-methylphenyl)-1-propylamine], the values for the IC50 (in data set [1]; in the data set on NMDA receptor) were 0.063 µM and 0.028 µM, respectively. In addition, in the data set with sound-induced seizures, the 50% effect level (ED50) was put at a dose of 1 mg/kg. Also, the TD50 in the data set “in vivo” was 6 to 8 mg/kg.
With `N[C@H]1CCCC1C(c1cccc(F)c1)c1cccc(F)c1` (stereo partly drawn) [Compound 63], the results for the IC50 (in data set [1]; in the data set with NMDA receptor; in the data set on L-type calcium channel) were 0.245 µM, 0.093 µM and 1900 nM, respectively. Also, the “Central muscarinic cholinergic receptor: percent block of [3H]QNB binding” value in data set [2] (at 0.1 μM) is recorded as 11% at; in data set [2] (at 10 μM) it was 0.181% at. In addition, the “Monoamine uptake binding assays: serotonin uptake binding assay, percent block” value is 10^g13% at at serotonin uptake site (at 0.1 μM) and 0.1^h85% at at serotonin uptake site (at 10 μM). The entries for the “Monoamine uptake binding assays: dopamine uptake binding assay, percent block” value on dopamine uptake site (at 0.1 μM) and at dopamine uptake site (at 10 μM) were 64% at and 0.1^f98% at, respectively. Moreover, the “Monoamine uptake binding assays: norepinephrine uptake binding assay, percent block” value was 10^f7% at in data set [3] (at 0.1 μM) and 0.1^g76% at in [3] (at 10 μM).
In the case of `N[C@@H]1CCCC1C(c1cccc(F)c1)c1cccc(F)c1` (stereo partly drawn) [Compound 64], the IC50 came out at 0.851 µM in data set [1] and 0.309 µM in the data set with NMDA receptor. For the same compound, the results for the “Central muscarinic cholinergic receptor: percent block of [3H]QNB binding” value in data set [2] (at 0.1 μM) and in data set [2] (at 10 μM) were 11% at and 0.183% at, respectively. The “Monoamine uptake binding assays: serotonin uptake binding assay, percent block” value is 10^g29% at at serotonin uptake site (at 0.1 μM) and 0.1^h68% at at serotonin uptake site (at 10 μM). The “Monoamine uptake binding assays: dopamine uptake binding assay, percent block” value is given as 50% at on dopamine uptake site (at 0.1 μM) and 0.1^f99% at on dopamine uptake site (at 10 μM). Also, the “Monoamine uptake binding assays: norepinephrine uptake binding assay, percent block” value in [3] (at 0.1 μM) is given as 8% at; in [3] (at 10 μM), 0.1^g65% at.
With `NCCC(Oc1cccc(F)c1)c1cccc(F)c1` (stereo not drawn) [Compound 119], the IC50 in data set [1] is 0.087 µM; with NMDA receptor, 0.115 µM. The compound also displayed an ED50 in the data set on sound-induced seizures of 7 mg/kg. The TD50 in the data set “in vivo” came out at 26.3 mg/kg.
On the same counts, the results for `NCCC(Oc1cccc(Cl)c1)c1cccc(F)c1` (stereo not drawn) [Compound 120] are 0.074 µM, 0.101 µM, 4.77 mg/kg and 20 to 30 mg/kg.
On the same counts, the results for `NCCC(Oc1ccccc1F)c1cccc(F)c1` (stereo not drawn) [Compound 122] are 0.342 µM, 0.209 µM, 4.7 mg/kg and 15.3 mg/kg.
Take `NCCC1c2ccccc2CCc2ccccc21` [Compound 156, 5-(2-Aminoethyl)-5H-10,11-dihydrodibenzo[a,d]cycloheptene hydrochloride]: the IC50 in [1] (hydrochloride) is 0.09 µM and 0.081 µM; in the data set with NMDA receptor it was 0.069 µM. Also, it took a dose of 5 mg/kg to reach the 50% effect level in the data set on sound-induced seizures (ED50). The same compound returned a TD50 in the data set “in vivo” of 17.4 mg/kg.
`CC(C(O)c1ccc(O)cc1)N1CCC(Cc2ccccc2)CC1` (stereo not drawn) [ifenprodil, reference compound]: the “induction of LTP (p<0.05)” value in the data set on induction of LTP is listed as “significantly blocked”.
